Reference: patent publication US9221834B2 (Merck Sharp & Dohme Corp., priority 2010, dated 2015)
pIC50: −log10 of the molar value.

What follows are compounds tested against T1, recombinant CETP (rCETP) (Homo sapiens, UniProt P11597) (assay: RTA assay using recombinant CETP (2% RTA)). Details: RTA assay in 2% human serum; read-out: IC50.
T1 sequence (P11597 18-493): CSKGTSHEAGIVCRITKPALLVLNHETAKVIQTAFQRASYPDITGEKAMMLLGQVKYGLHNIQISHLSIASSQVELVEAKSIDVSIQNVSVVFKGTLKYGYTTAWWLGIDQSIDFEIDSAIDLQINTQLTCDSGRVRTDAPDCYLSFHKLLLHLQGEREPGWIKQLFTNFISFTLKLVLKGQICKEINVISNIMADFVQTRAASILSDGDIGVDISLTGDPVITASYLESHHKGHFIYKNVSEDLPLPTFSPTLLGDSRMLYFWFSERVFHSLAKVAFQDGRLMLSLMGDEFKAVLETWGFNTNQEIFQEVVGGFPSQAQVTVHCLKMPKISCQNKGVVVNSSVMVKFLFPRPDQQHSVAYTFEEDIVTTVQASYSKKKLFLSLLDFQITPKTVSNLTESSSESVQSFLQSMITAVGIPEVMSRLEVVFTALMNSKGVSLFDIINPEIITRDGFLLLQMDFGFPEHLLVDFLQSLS
Format: biochemical
Protocol: In Vitro Radioactive Assays of CETP-Catalyzed CE and TG Transfer (RTA Assay)
Reagents and sources are: [3H] cholesteryl oleate (GE #TRK.886), [3H]
Both assays measure the transfer of [3H] cholesteryl oleate or [3H]triolein from exogenous LDL to HDL.
After a brief vortex, the solution is sonicated until clear and mixed with 20 mL of fresh human serum. The mixture is incubated overnight at 37° C. […] Once isolated the particles are dialyzed 3× in CETP buffer (50 mM Tris, pH 7.4, 100 mM NaCl, 1 mM EDTA). Human HDL is purchased from Intracel and used as the acceptor particles.
Transfer assays are performed in a 96-well v-bottom polypropylene plate. […] 1 μL of each test compound diluted in DMSO is added to 47 μL of assay cocktail per well and incubated at 37° C. for 1 hour. To initiate the transfer reaction, 2 μL radiolabeled LDL is added. After an additional 60 min of incubation at 37° C., the transfer action is terminated by precipitation of LDL with an equal volume of 20% W/V PEG 8000. The plates are centrifuged at 2000 rpm for 30 minutes at 4° C. A 40 μL aliquot of the HDL-containing supernatant is transferred to a Packard Optiplate with 200 μL of MicroScint 20. After mixing, plates are counted by liquid scintillation. Counts present in the supernatant for blanks (wells containing only HDL acceptor, CETP buffer and DMSO) are subtracted from those containing test compounds and used to correct for non-specific transfer.
Comparison of the counts of samples with inhibitors to an uninhibited (DMSO only) positive control yield a percent inhibition. A plot of percent inhibition vs. log of inhibitor concentration, fit to a Sigmoidal 4 parameter equation is used to calculate IC50.
With `COc1ccc([C@H]2CC[C@H](C(=O)O)CC2)cc1-c1ccc(N2CCC2)nc1CN1C(=O)O[C@H](c2cc(C(F)(F)F)cc(C(F)(F)F)c2)[C@@H]1C` [Example 73] the pIC50 was 8.10.
With `COc1ccc([C@@H]2C[C@H]2C(=O)O)cc1-c1ccc(N2CCC2)nc1CN1C(=O)O[C@H](c2cc(F)cc(F)c2)[C@@H]1C` [Example 83] the pIC50 was 6.87.
`COc1ccc(CCC(=O)O)cc1-c1cnc(N2CCC2)nc1CN1C(=O)O[C@H](c2cccc(C(F)(F)F)c2)[C@@H]1C` [Example 273] showed a pIC50 of 5.64.
Work on `COc1ccc(CC(C)(C)C(=O)O)cc1-c1cnc(N2CCC2)nc1CN1C(=O)O[C@H](c2cc(C(F)(F)F)cc(C(F)(F)F)c2)[C@@H]1C` [Example 156] yielded a pIC50 of 7.38.
`COC(=O)[C@@H]1CC[C@@H](c2ccc(OC)c(-c3c(C)cc(N4CCC4)nc3CN3C(=O)O[C@H](c4cc(C(F)(F)F)cc(C(F)(F)F)c4)[C@@H]3C)c2)C1` (mixture of isomers) [Example 216] gave a pIC50 of 8.05.
`COc1ccc(-c2cc(C(=O)O)sc2C)cc1-c1ccc(N2CCC2)nc1CN1C(=O)O[C@H](c2cc(C(F)(F)F)cc(C(F)(F)F)c2)[C@@H]1C` [Example 109] gave a pIC50 of 8.05.
`CCOC(=O)[C@@H]1C[C@H]1c1ccc(OC)c(-c2ccc(N3CCC3)nc2CN2C(=O)O[C@H](c3cc(C)cc(C)c3)[C@@H]2C)c1` [Example 208] gave a pIC50 of 7.60.
In the case of `COc1cc2c(cc1-c1ccc(N3CCC3)nc1CN1C(=O)O[C@H](c3cccc(C)c3)[C@@H]1C)[C@H](CC(=O)O)CC2` [Example 231], the pIC50 was 6.39.
`COc1ccc(CCC(=O)O)cc1-c1ccc(N2CC(F)(F)C2)nc1CN1C(=O)O[C@H](c2cccc(OC(F)(F)F)c2)[C@@H]1C` [Example 297] was tested, and the pIC50 was 6.43.
`COc1ccc(-c2ccc(C(=O)O)cc2C)cc1-c1cnc(N2CC(F)(F)C2)nc1CN1C(=O)O[C@H](c2cc(C(F)(F)F)cc(C(F)(F)F)c2)[C@@H]1C` [Example 160] showed a pIC50 of 8.05.
Work on `COC(=O)C[C@H]1C[C@H](c2ccc(OC)c(-c3ccc(N4CCC4)nc3CN3C(=O)O[C@H](c4cc(C(F)(F)F)cc(C(F)(F)F)c4)[C@@H]3C)c2)C1` [Example 26] yielded a pIC50 of 8.15.
Work on `COc1ccc([C@H]2C[C@@H]2C(=O)O)cc1-c1c(C)cc(N2CCC2)nc1CN1C(=O)O[C@H](c2cc(C(F)(F)F)cc(C(F)(F)F)c2)[C@@H]1C` [Example 71] yielded a pIC50 of 8.30.
With `CCOC(=O)C[C@@H]1CCc2cc(OC)c(-c3ccc(N4CCC4)nc3CN3C(=O)O[C@H](c4cc(C)cc(C)c4)[C@@H]3C)cc21` [Example 205] the pIC50 was 7.27.
`COc1cc(F)c(-c2ncc(C(=O)O)cc2Cl)cc1-c1cnc(N2CC(F)(F)C2)nc1CN1C(=O)O[C@H](c2cc(C(F)(F)F)cc(C(F)(F)F)c2)[C@@H]1C` [Example 189] was tested, and the pIC50 was 8.30.
With `COc1cc(F)c([C@H]2C[C@H](C(=O)OC)C2)cc1-c1ccc(N2CCC2)nc1CN1C(=O)O[C@H](c2cc(C(F)(F)F)cc(C(F)(F)F)c2)[C@@H]1C` [Example 38] the pIC50 was 8.30.
`COc1ccc([C@H]2C[C@H](C(=O)O)C2)cc1-c1c(C)cc(N2CCC2)nc1CN1C(=O)O[C@H](c2cc(C(F)(F)F)cc(C(F)(F)F)c2)[C@@H]1C` [Example 97] was tested, and the pIC50 was 8.40.
Compound `COC(=O)[C@H]1CC[C@@H](c2ccc(OC)c(-c3ccc(N4CCC4)nc3CN3C(=O)O[C@H](c4cc(C(F)(F)F)cc(C(F)(F)F)c4)[C@@H]3C)c2)C1` (single isomer, unassigned) [Example 217] has a pIC50 of 7.72.
`CCOC(=O)C[C@@H]1CCc2cc(OC)c(-c3ccc(N4CCC4)nc3CN3C(=O)O[C@H](c4cc(F)cc(F)c4)[C@@H]3C)cc21` [Example 20] was tested, and the pIC50 was 7.02.
Work on `COc1ccc(CCC(=O)O)cc1-c1ccc(N2CCCCC2)nc1CN1C(=O)O[C@H](c2cc(C(F)(F)F)cc(C(F)(F)F)c2)[C@@H]1C` [Example 271, 3-{3-[2-({(4S,5R)-5-[3,5-bis(trifluoromethyl)phenyl]-4-methyl-2-oxo-1,3-oxazolidin-3-yl}methyl)-6-piperidin-1-ylpyridin-3-yl]-4-methoxyphenyl}propanoic acid] yielded a pIC50 of 7.02.
Work on `CCc1ccc(-c2ccc(C(=O)OC)cc2C)cc1-c1cnc(N2CC(OC)C2)nc1CN1C(=O)O[C@H](c2cc(C(F)(F)F)cc(C(F)(F)F)c2)[C@@H]1C` [Example 137] yielded a pIC50 of 6.22.
`COC(=O)c1ccc(-c2ccc(OC)c(-c3cnc(N4CC(OC)C4)nc3CN3C(=O)O[C@H](c4cc(C(F)(F)F)cc(C(F)(F)F)c4)[C@@H]3C)c2)c(C)c1` [Example 135] gave a pIC50 of 7.05.
Work on `COc1ccc([C@H]2CC[C@H](C(=O)O)CC2)cc1-c1ccc(N2CCC2)nc1CN1C(=O)O[C@H](c2cccc(C)c2)[C@@H]1C` [Example 225] yielded a pIC50 of 7.18.
Work on `COc1cc(F)c(CCC(=O)O)cc1-c1c(C)cc(N2CCC2)nc1CN1C(=O)O[C@H](c2cc(C(F)(F)F)cc(C(F)(F)F)c2)[C@@H]1C` [Example 69] yielded a pIC50 of 8.30.
`COc1ccc([C@H]2CC[C@H](C(=O)O)CC2)cc1-c1cnc(N2CCC2)nc1CN1C(=O)O[C@H](c2cc(C(F)(F)F)cc(C(F)(F)F)c2)[C@@H]1C` [Example 154] showed a pIC50 of 7.57.
`COc1ccc(CCO)cc1-c1ccc(N2CCC2)nc1CN1C(=O)O[C@H](c2cc(C(F)(F)F)cc(C(F)(F)F)c2)[C@@H]1C` [Example 259, (4S,5R)-3-({6-azetidin-1-yl-3-[5-(2-hydroxyethyl)-2-methoxyphenyl]pyridin-2-yl}methyl)-5-[3,5-bis(trifluoromethyl)phenyl]-4-methyl-1,3-oxazolidin-2-one] was tested, and the pIC50 was 8.40.
For `COc1cc(F)c(-c2ccc(C(=O)O)cc2C)cc1-c1ccc(N2CCC2)nc1CN1C(=O)O[C@H](c2cc(C#N)cc(C(F)(F)F)c2)[C@@H]1C` [Example 247], the pIC50 was 7.36.
For `COc1cc(F)c([C@H]2C[C@@H](C(=O)OC)C2)cc1-c1ccc(N2CCC2)nc1CN1C(=O)O[C@H](c2cc(C(F)(F)F)cc(C(F)(F)F)c2)[C@@H]1C` [Example 37], the pIC50 was 7.77.
With `COc1ccc(CC(C)(C)C(=O)OC(C)(C)C)cc1-c1cnc(N2CCC2)nc1CN1C(=O)O[C@H](c2cc(C(F)(F)F)cc(C(F)(F)F)c2)[C@@H]1C` [Example 127] the pIC50 was 6.94.
`COC(=O)CCc1ccc(OC)c(-c2ccc(N3CCC3)nc2CN2C(=O)O[C@H](c3cc(F)cc(F)c3)[C@@H]2C)c1` [Example 14] gave a pIC50 of 7.06.
With `COc1ccc([C@H]2CC[C@H](C(=O)O)CC2)cc1-c1ccc(N2CCC2)nc1CN1C(=O)O[C@H](c2cc(F)cc(F)c2)[C@@H]1C` [Example 85] the pIC50 was 7.08.
Work on `COc1cc(F)c(-c2cc(C(F)(F)F)c(C(=O)O)cn2)cc1-c1cnc(N2CC(F)(F)C2)nc1CN1C(=O)O[C@H](c2cc(C(F)(F)F)cc(C(F)(F)F)c2)[C@@H]1C` [Example 190] yielded a pIC50 of 6.84.
`COc1ccc(CCC(=O)O)cc1-c1ccc(N2CCCC2)nc1CN1C(=O)O[C@H](c2cc(C(F)(F)F)cc(C(F)(F)F)c2)[C@@H]1C` [Example 62] gave a pIC50 of 7.31.
`COc1ccc([C@H]2CC[C@H](C(=O)O)CC2)cc1-c1cnc(N2CCC2)nc1CN1C(=O)O[C@H](c2cccc(C(F)(F)F)c2)[C@@H]1C` [Example 272] showed a pIC50 of 6.78.
Compound `COc1c(F)cc(-c2ccc(C(=O)O)cc2C)cc1-c1c(C)cc(N2CCC2)nc1CN1C(=O)O[C@H](c2cc(C(F)(F)F)cc(C(F)(F)F)c2)[C@@H]1C` [Example 287] has a pIC50 of 8.52.
With `COC(=O)CC(C)(C)c1ccc(OC)c(-c2ccc(N3CCC3)nc2CN2C(=O)O[C@H](c3cc(C(F)(F)F)cc(C(F)(F)F)c3)[C@@H]2C)c1` [Example 7] the pIC50 was 7.92.
`COc1ccc(CC(=O)O)cc1-c1ccc(N2CCC2)nc1CN1C(=O)O[C@H](c2cc(C(F)(F)F)cc(C(F)(F)F)c2)[C@@H]1C` [Example 80] was tested, and the pIC50 was 7.44.
For `COc1ccc(CCc2nc[nH]n2)cc1-c1ccc(N2CCC2)nc1CN1C(=O)O[C@H](c2cc(C(F)(F)F)cc(C(F)(F)F)c2)[C@@H]1C` [Example 270, (4S,5R)-3-[(6-azetidin-1-yl-3-{2-methoxy-5-[2-(1H-1,2,4-triazol-3-yl)ethyl]phenyl}pyridin-2-yl)methyl]-5-[3,5-bis(trifluoromethyl)phenyl]-4-methyl-1,3-oxazolidin-2-one], the pIC50 was 8.15.
`COc1ccc(-c2ccc(C(=O)O)cc2C)cc1-c1ccc(N2CCC2)nc1CN1C(=O)O[C@H](c2cc(C)cc(C)c2)[C@@H]1C` [Example 236] showed a pIC50 of 7.89.
In the case of `COc1ccc([C@@H]2CC[C@@H](C(=O)O)C2)cc1-c1ccc(N2CCC2)nc1CN1C(=O)O[C@H](c2cc(C(F)(F)F)cc(C(F)(F)F)c2)[C@@H]1C` (single isomer, unassigned) [Example 238], the pIC50 was 8.30.
